Data on four compounds can be found in US20110287936A1, “GENE SWITCH COMPOSITIONS AND METHODS OF USE” (priority 2010, published 2011).

The test system of assay [1] is tetA promoter (PtetA)-lacZ reporter in E. coli strain KM3. The format is cell-based. The settings on record: L1 hits, 20 μg/ml.
Assay [2] concerns 35S PRO:3xTetOp:dsRED reporter with ESR(L13-2-23). In words: Rice callus RFP induction by sulfonylureas. The format is in vivo. The settings on record: for RFP Score: 20 hours, rice callus. On the procedure:
Mature seed of rice were surface sterilized and placed on callus induction medium (Chu (N6) salts, Eriksson's vitamins, 0.5 mg/L thiamine, 2 mg/L 2,4-D, 2.1 g/L proline, 30 g/L sucrose, 300 mg/L casein hydrolysate, and 100 mg/L myo-inositol, adjusted to pH 5.8). After one week, callus was transformed using Agrobacterium LBA4404, delivering the following T-DNA: • RB-35S PRO:3xTetOp:dsRED::pinII+35S PRO::Adh intron::ESR(L13-2-23)::UBI TERM+Sb-ALS PRO::HRA::pinII-LB
Transgenic events were visually selected as […] calli growing on 100 PPB ethametsulfuron. […] Non-fluorescing events were then transferred to plates of medium containing varying amounts of sulfonylureas (SU). For the control, there was no SU, with additional treatments containing 100 or 500 ppb chlorsulfuron, and 100 or 500 ppb ethametsulfuron, After 20 hours of the induction treatment, micrographs were taken at the same exposure and scored (see Example 7 for scoring criteria) as shown in the table below
(§1) The BSV::tetOp promoter and the MP1::tetOp promoter were synthesized and cloned into expression cassettes driving expression of the DsRED (RFP) gene for testing. For all comparisons of RFP expression, side-by-side comparisons were made within experiment by taking micrographs of the tissue at the same exposure and qualitatively ranking fluorescence intensity, assigning the scores in the table below. The DsRED protein is very stable (has a relatively long half-life), and even with low expression levels in the cell can accumulate over time.

Assay [3] relates to BSV(AY) PRO::tetOp::ODP2 with ESR(3E3). Description: Inducible callus initiation from maize leaf pieces. Format: in vivo. The settings on record: 100 mg/L chlorsulfuron, two weeks. On the procedure: Immature maize embryos from maize inbred PHN46 were transformed as describe in Example 5D using Agrobacterium comprising the following: • RB-BSV(AY) PRO::tetOp::Adh1 Intron::ODP2::pinII+35S ENH::ALS PRO::HRA::pinII+Ubi Pro::ESR(3E3)::pinII-LB.
Events were selected on 100 μg/l chlorsulfuron, and plantlets were regenerated in the absence of the SU compound. When the plantlets were approximately 20 cm tall, the leaves were cut into approximately 2-4 mm cross-sections and placed on embryogenic culture medium+/−100 mg/L chlorsulfuron.

The subject of assay [4] is BSV:tetOp or 35S:tetOp::dsRed with Ubi:ESR(3E3). Description: Maize callus RFP de-repression on chlorsulfuron selection. The format is in vivo.
From the text: as §1
Maize immature embryos were transformed with Agrobacterium as generally described in Example 5D. Transformants were generated that contained one of the two T-DNAs shown below: • RB-BSV:tetOp::Adh Intron::dsRed+ALS:HRA+Ubi:ESR(3E3)-LB • RB-35S:tetOp::Adh intron::dsRed+ALS:HRA+Ubi::ESR(3E3)-LB
Selection of transgenic events was performed using 30, 100, or 500 μg/L chlorsulfuron.

Assay [5] deals with 35S/TripleOp/Pro::RFP reporter. Description: Maize callus and seedling RFP de-repression. The format is in vivo. The settings on record: 1 mg/l doxycycline; callus and plants with UBI::TetR expression cassette.
The subject of assay [6] is 35S PRO:tetOp::moCRE with ESR(L13-2-23), loxP AmCYAN/ZsYELLOW reporter. In words: Ethametsulfuron-induced Cre excision in rice callus. The settings on record: rice calli, 250 μg/L ethametsulfuron, one week.
Description: (§2) Herbicide-resistant, blue fluorescent co-transformed calli were recovered and tested for SU-inducible excision. Calli were split onto media+/−250 μg/L ethametsulfuron.
Assay [7] has the same test system. Description: Ethametsulfuron-induced Cre excision in maize callus. The settings on record: maize calli, 250 μg/L ethametsulfuron, one week.
Description: as §2
For assay [8], the system named is 35S PRO:tetOp::moCRE with ESR(L13-2-23), lox66/lox71 AmCYAN/ZsYELLOW reporter. In words: Ethametsulfuron-induced Cre inversion in maize callus. The note with it: 250 μg/L ethametsulfuron, one week.

As to `CCOC(=O)c1ccccc1S(=O)(=O)NC(=O)Nc1nc(Cl)cc(OC)n1` [chlorimuron, Chlorimuron-ethyl], the “potency as activator compared with Harmony®” value in assay [1] is listed as “more potent activators than the starting ligand Harmony®”.
Consider `COc1nc(C)nc(NC(=O)NS(=O)(=O)c2ccccc2Cl)n1` [chlorsulfuron, 2 chloro N((4 methoxy 6 methy 1,3,5 triazine 2 yl)aminocarbonyl)benzenesulfonamide], for which, in assay [1], the “potency as activator compared with Harmony®” value is “more potent activators than the starting ligand Harmony®”. The “RFP Score” value was 0-1 in assay [2] (100 ppb); 2-3 in assay [2] (500 ppb); 0 in assay [4] (30 μg/l, six weeks). Further, the “callus initiation from leaf pieces” value in assay [3] is “producing callus from the leaf segments”. Besides, the RFP fluorescence entry in assay [4] (100 μg/l, six weeks) is reported as “small sectors of RFP fluorescence were observed”; in assay [4] (500 μg/l, six weeks), “large segments of the calli were brightly fluorescing”. In addition, in assay [4] (in vivo), the “activity as inducer of the ethametsulfuron repressor, fold less” value is given as “approximately 10 fold”.
The compound `C[C@H]1c2cccc(O)c2C(=O)C2=C(O)[C@]3(O)C(=O)C(C(N)=O)=C(O)[C@@H](N(C)C)[C@@H]3[C@@H](O)[C@@H]21` [doxycycline] registered an induction period in assay [5] of 5 to 6 days.
Consider `CCOc1nc(NC)nc(NC(=O)NS(=O)(=O)c2ccccc2C(=O)OC)n1` [ethametsulfuron, Ethametsulfuron-methyl], for which, in assay [1], the “potency as activator compared with Harmony®” value is reported as “more potent activators than the starting ligand Harmony®”. Further, in assay [2] (100 and 500 ppb), the “level of RFP induction, comparison of ligands” value is given as “induced to a greater level than chlorsulfuron”. Also, the “RFP Score” value in assay [2] (100 ppb) is given as 1-2; in assay [2] (500 ppb) it was 4. The SU-inducible excision entry in assay [6] and in assay [7] was “yellow fluorescent sectors were observed” in each case. For the same compound, in assay [8], the SU-inducible inversion result is “sectors exhibiting only yellow fluorescent”.
